Results on 27 compounds are retold here after US20230142274A1 (SIMCERE PHARMACEUTICAL CO., LTD., priority 2020, published 2023).

What is called IC50 is the concentration at which inhibition is half-maximal.

Molecules are shown by their SMILES.

The test system of one assay is Daudi cells. In words: Inhibition of human Daudi lymphoma cell proliferation (Cell-Titer Glo). The assay is classed as cell-based. The conditions noted are these: 3 days incubation, read-out: Anti-Proliferative Activity Against Daudi cells IC50. How it is done:
Introduction of the experimental principle: After the RAD51 inhibitor to be tested was co-incubated with cancer cells for a period of time, the influence of the test compound on cell proliferation was measured by a method for counting cell proliferation based on the quantitative measurement of intracellular ATP content.
Materials and Cells: Daudi cells were purchased from ATCC; fetal bovine serum, 1640 medium and penicillin-streptomycin were purchased from Gibco Inc. (U.S.), 96-well plates were purchased from Corning Inc. (U.S.), and Cell-Titer Glo reagent was purchased from Promega Corporation (U.S.).
Cell culture: Daudi cells were cultured in 1640 culture medium containing 10% fetal bovine serum and 1% penicillin-streptomycin at 37° C. in an atmosphere containing 5% CO2. Cells in logarithmic growth phase could be used for experiments.
Assay of cell proliferation and viability: Cell-Titer Glo reagent was used to measure the inhibitory activities of the compounds on the proliferation of Daudi cell strain. The concentration of cells was adjusted, and the cells were seeded in a 96-well plate and cultured at 37° C. in an atmosphere containing 5% CO2 for 24 hours. The powder of the compound was dissolved in 100% DMSO to form a 10 mM solution. 10 μl of the solution of the compound was aspirated and transferred into a 96-well compound plate containing 20 μl of DMSO solution for 3-fold dilution and was then formulated into 10 serial dilutions. Thereafter, 2 μl of the solution of the compound was aspirated from the corresponding well and added correspondingly into a 96-well intermediate compound dilution plate containing 78 μl of complete culture medium in each well. The resultant was mixed well, and the plate was centrifuged at 1000 rpm for 1 minute. Finally, 10 μl of the solution of the compound was aspirated from the corresponding well of the 96-well intermediate compound dilution plate, and transferred into the corresponding well of the cell culture plate containing 90 μl of complete culture medium. The final concentration of DMSO was 0.25%. After the addition of the compound, the cells were continued to be incubated for 3 days at 37° C. in an atmosphere containing 5% CO2. Cell-Titer Glo reagent was added to measure cell viability.
% Compound inhibition was calculated and IC50 of the compound was filled;
% Compound inhibition=1−100%×(Signal−Bottom)/(Top−Bottom)
As to `CC(C)OC(=O)Nc1ccc(-c2cnc(N3CC4C(C3)C4NC(=O)OC(C)C)s2)c(S(=O)(=O)NC(C)(C)C)c1` (stereo not drawn) [Example 10, isopropyl exo-N-[3-(tert-butylsulfamoyl)-4-[2-[6-(isopropoxycarbonylamino)-3-azabicyclo[3.1.0]hex-3-yl]thiazol-5-yl]phenyl]carbamate], the IC50 amounted to 9720 nM.

Still in this assay, the particulars now being: Homo sapiens, 72 h, 3 days incubation, read-out: Anti-Proliferative Activity Against Daudi cells IC50.
As to `CC(C)OC(=O)Nc1ccc(-c2ncc(-c3ccc(Nc4cn(C)nn4)cc3S(=O)(=O)C3CC3)s2)cc1` [Example 59], the IC50 came out at 125 nM.
In the case of `CC(C)OC(=O)N[C@H]1CC[C@H](c2ncc(-c3ccc(Nc4ccccn4)cc3S(=O)(=O)C3CC3)s2)CC1` [Example 66, isopropyl trans-N-[4-[5-[2-cyclopropylsulfonyl-4-(2-pyridylamino)phenyl]thiazol-2-yl]cyclohexyl]carbamate], the IC50 stood at 18 nM.
As for `CC(C)OC(=O)NC1CCC(c2ncc(-c3ccc(Nc4ncncn4)cc3S(=O)(=O)C3CC3)s2)CC1` (stereo not drawn) [Example 80, isopropyl trans-N-[4-[5-[2-cyclopropylsulfonyl]-4-(1,3,5-triazin-2-ylamino)phenyl]thiazol-2-yl]cyclohexyl]carbamate], the IC50 was 330 nM.
The same measure, in the same setting: to `CC(C)OC(=O)NC12CCC(c3ncc(-c4ccc(Nc5cn(C)nn5)cc4S(=O)(=O)C4CC4)s3)(CC1)CC2` [Example 58] belongs 27 nM.
As to `CC(C)OC(=O)N[C@H]1CC[C@H](c2ncc(-c3ccc(-n4cccn4)cc3S(=O)(=O)C3CC3)s2)CC1` [Example 87, isopropyl trans-N-[4-[5-(2-cyclopropylsulfonyl-4-pyrazol-1-yl-phenyl)thiazol-2-yl]cyclohexyl]carbamate], the IC50 is 290 nM.
For the compound `COc1ccc(Nc2ccc(-c3cnc([C@H]4CC[C@H](NC(=O)OC(C)C)CC4)s3)c(S(=O)(=O)C3CC3)c2)cn1` [Example 93, isopropyl trans-(4-(5-(2-(cyclopropylsulfonyl)-4-((6-methoxypyridin-3-yl)amino)phenyl)thiazol-2-yl)cyclohexyl)carbamate], the IC50 was 10 nM.
On the same count and under the same terms, the same measure for `Cc1cc(Nc2ccc(-c3cnc(N4CC5C(C4)C5NC(=O)OC(C)C)s3)c(S(=O)(=O)C3CC3)c2)n[nH]1` (stereo not drawn) [Example 109, isopropyl (3-(5-(2-(cyclopropylsulfonyl)-4-((5-methyl-1H-pyrazol-3-yl)amino)phenyl)thiazol-2-yl)-3-azabicyclo[3.1.0]hexanone-6-yl)carbamate]: 76 nM; for `CC(C)OC(=O)Nc1ccc(-c2nnc([C@H]3CC[C@H](NC(=O)OC(C)C)CC3)s2)c(S(=N)(=O)C(C)C)c1` (stereo partly drawn) [Example 41, isopropyl trans-N-[4-[5-[4-(isopropoxycarbonylamino)cyclohexyl]-1,3,4-thiadiazol-2-yl]-3-(isopropylsulfonimidoyl)phenyl]carbamate]: 900 nM; for `CC(C)OC(=O)N[C@H]1CC[C@H](c2ncc(-c3ccc(Nc4ncco4)cc3S(=N)(=O)C3CC3)s2)CC1` (stereo partly drawn) [Example 99, isopropyl trans-(4-(5-(2-(cyclopropanesulfonimidoyl)-4-(oxazol-2-ylamino)phenyl)thiazol-2-yl)cyclohexyl)carbamate]: 36 nM.
On to `CC(C)OC(=O)N[C@H]1CC[C@H](c2ncc(-c3ccc(Nc4cccnn4)cc3S(=O)(=O)C(C)C)s2)CC1` [Example 44, isopropyl trans-N-[4-[5-[2-isopropylsulfonyl-4-(pyridazin-3-ylamino)phenyl]thiazol-2-yl]cyclohexyl]carbamate], for which the IC50 came out at 680 nM.
Turning to `Cc1ccc(Nc2ccc(-c3cnc(C4CCC(NC(=O)OC(C)C)CC4)s3)c(S(=O)(=O)C3CC3)c2)nc1` (stereo not drawn) [Example 77, isopropyl trans-(4-(5-(2-(cyclopropylsulfonyl)-4-((5-methylpyridin-2-ylamino)phenyl)thiazol-2-yl)cyclohexyl)carbamate], the IC50 worked out at 4 nM.
Turning to `Cc1cc(Nc2ccc(-c3nc4c(s3)CC(NC(=O)OC(C)C)CC4)c(S(=O)(=O)C3CC3)c2)n[nH]1` (stereo not drawn) [Example 107, isopropyl (2-(2-(cyclopropylsulfonyl)-4-((5-methyl-1H-pyrazol-3-yl)amino)phenyl)-4,5,6,7-tetrahydrobenzo[d]thiazol-6-yl)carbamate], the IC50 was determined as 275 nM.
`CC(C)OC(=O)N[C@H]1CC[C@H](c2ncc(-c3ccc(Nc4cnn(CCF)c4)cc3S(=N)(=O)C3COC3)s2)CC1` (stereo partly drawn) [Example 106, isopropyl trans-N-[4-[5-[4-[[1-(2-fluoroethyl)pyrazol-4-yl]amino]-2-(oxetan-3-ylsulfonimidoyl)phenyl]thiazol-2-yl]cyclohexyl]carbamate]: the IC50 was 40 nM.
On to `CC(C)OC(=O)N[C@H]1CC[C@H](c2ncc(-c3ccc(Nc4ccc(C(F)(F)F)cn4)cc3S(=N)(=O)C3CC3)s2)CC1` (stereo partly drawn) [Example 82], for which the IC50 stood at 250 nM.
Regarding `CC(C)OC(=O)N[C@H]1CC[C@H](c2ncc(-c3ccc(Nc4cc(C(F)(F)F)[nH]n4)cc3S(=O)(=O)C(C)C)s2)CC1` [Example 46], the IC50 worked out at 390 nM.
Turning to `CCP(=O)(CC)c1cc(NC(=O)OC(C)C)ccc1-c1cnc([C@H]2CC[C@H](NC(=O)OC(C)C)CC2)s1` [Example 23, isopropyl trans-N-[3-diethylphosphoryl-4-[2-[4-(isopropoxycarbonylamino)cyclohexyl]thiazol-5-yl]phenyl]carbamate], the IC50 was 3930 nM.
As for `CC(C)OC(=O)N[C@H]1CC[C@H](c2ncc(-c3ccc(Nc4cccnc4)cc3S(=O)(=O)C3CC3)s2)CC1` [Example 76, isopropyl trans-N-[4-[5-[2-cyclopropylsulfonyl-4-(3-pyridylamino)phenyl]thiazol-2-yl]cyclohexyl]carbamate], the IC50 was 9 nM.
On to `CC(C)OC(=O)Nc1ccc(-c2cnc([C@H]3CC[C@H](NC(=O)OC(C)C)CC3)s2)c(P2(=O)CCCC2)c1` [Example 27, isopropyl trans-N-[4-[2-[4-(isopropoxycarbonylamino)cyclohexyl]thiazol-5-yl]-3-(1-oxophospholan-1-yl)phenyl]carbamate], for which the IC50 amounted to 680 nM.
In the case of `Cc1cc(Nc2ccc(-c3ccc([C@H]4CC[C@H](NC(=O)OC(C)C)CC4)s3)c(S(=O)(=O)C3CC3)c2)n[nH]1` [Example 89, isopropyl trans-(4-(5-(2-(cyclopropylsulfonyl)-4-((5-methyl-1H-pyrazol-3-yl)amino)phenyl)thiophen-2-yl)cyclohexyl)carbamate], the concentration for half-maximal inhibition (IC50) is 7 nM.
Still for that read-out and setting: the same measure for `CC(C)OC(=O)N[C@H]1CC[C@H](c2ncc(-c3ccc(NC(=O)C4CC4)cc3S(=O)(=O)C3CC3)s2)CC1` [Example 74, isopropyl trans-(4-(5-(4-(cyclopropanecarboxamido)-2-(cyclopropylsulfonyl)phenyl)thiazol-2-yl)cyclohexyl)carbamate]: 90 nM; for `Cc1cc(Nc2ccc(-c3ncc([C@H]4CC[C@@H](NC(=O)OC(C)C)CC4)s3)c(S(=O)(=O)C3CC3)c2)n[nH]1` [Example 91-1, isopropyl cis-(4-(2-(2-(cyclopropylsulfonyl)-4-((5-methyl-1H-pyrazol-3-yl)amino)phenyl)thiazol-5-yl)cyclohexyl)carbamate]: 60 nM.
In the case of `CC(C)OC(=O)N[C@H]1CC[C@H](c2ncc(-c3ccc(Nc4ccc[nH]c4=O)cc3S(=O)(=O)C(C)C)s2)CC1` [Example 35, isopropyl trans-N-[4-[5-[2-isopropylsulfonyl-4-[(2-oxo-1H-pyridin-3-yl)amino]phenyl]thiazol-2-yl]cyclohexyl]carbamate], the IC50 is 4290 nM.
The same measure, in the same setting: to `CC(C)OC(=O)N[C@H]1CC[C@H](c2ncc(-c3ccc(Nc4cc(C5CC5)[nH]n4)cc3S(=N)(=O)C3CC3)s2)CC1` (stereo partly drawn) [Example 63, isopropyl trans-N-[4-[5-[4-[(5-cyclopropyl-1H-pyrazol-3-yl)amino]-2-(cyclopropylsulfonimidoyl)phenyl]thiazol-2-yl]cyclohexyl]carbamate] belongs 70 nM; to `CC(C)OC(=O)N[C@H]1CC[C@H](c2ncc(-c3ccc(Nc4ccc(=O)[nH]c4)cc3S(=N)(=O)C3CC3)s2)CC1` (stereo partly drawn) [Example 95, isopropyl trans-(4-(5-(2-(cyclopropanesulfonimidoyl)-4-((6-oxo-1,6-dihydropyridin-3-yl)amino)phenyl)thiazol-2-yl)cyclohexyl)carbamate], 132 nM.
As to `CC(C)OC(=O)NC1CCC(c2ncc(-c3ccc(N4CCCO4)cc3S(=N)(=O)C3CC3)s2)CC1` (stereo not drawn) [Example 64, isopropyl trans-(4-(5-(2-(cyclopropanesulfonimidoyl)-4-(isoxazolidin-2-yl)phenyl)thiazol-2-yl)cyclohexyl)carbamate], the IC50 came out at 5200 nM.
As to `CC(C)OC(=O)N[C@H]1CC[C@H](c2ncc(-c3ccc(Nc4ccon4)cc3S(=O)(=O)NC(C)(C)C)s2)CC1` [Example 30, isopropyl trans-(4-(5-(2-(N-(tert-butyl)sulfamoyl)-4-(isoxazol-3-ylamino)phenyl)thiazol-2-yl)cyclohexyl)carbamate], the IC50 turned out to be 2650 nM.
